In US6417187B2, “1,2,4-triazole based compounds that can be used as insecticides or acaricides and processes” (Dow AgroSciences LLC, priority 2000, dated 2002):

Key:
Format in all cases: in vivo
[1] = tested on: cotton aphid (Aphis gossvpii); experiment: Insecticidal test for cotton aphid (squash cotyledon spray); details: 50 ppm spray on infested squash cotyledons, 3 days, population reduction versus untreated; for pest or weed control at 50 ppm: 72 h, read-out: CA: activity at 50 ppm against cotton aphid (% Control rating)
[2] = tested on: Sweetpotato Whitefly (Bemisia tabacia); experiment: Insecticidal test for Sweetpotato Whitefly (cotton plant spray); details: 200 ppm spray on cotton plants, 13 days, reduction of large nymphs; for pest or weed control at 200 ppm: Bemisia, 312 h, read-out: WF: activity at 200 ppm against whitefly (% Control rating)
[3] = tested on: beet armyworm (Spodoptera exigua); experiment: Insecticidal test for beet armyworm (treated lepidopteran diet); details: 400 ppm, treated diet, second-instar larvae, 5 days; for pest or weed control at 400 ppm: Spodoptera exigua, 120 h, read-out: BAW: activity at 400 ppm against beet armyworm (% Control rating)
[4] = tested on: Brown Planthopper (Nilaparvata lugens); experiment: Insecticidal test for Brown Planthopper (rice seedling roots in test solution); details: 10 ppm test solution, rice seedling roots, 3rd instar nymphs, mortality at 6 days
[5] = tested on: Green Leafhopper (Nephotettix cincticeps); experiment: Insecticidal test for Green Leafhopper (rice seedling roots in test solution); details: 10 ppm test solution, rice seedling roots, 3rd instar nymphs, mortality at 6 days
[6] = tested on: cabbage looper (Trichoplusia ni); experiment: Insecticidal test for cabbage looper (cabbage leaf-disc dip); details: 400 ppm, cabbage leaf-dip, 2nd instar larvae, 5 days; for pest or weed control at 400 ppm: Trichoplusia ni, 120 h, read-out: CL: activity at 400 ppm against cabbage looper (% Control rating)

| SMILES | pest or weed control at 50 ppm [1] [%] | pest or weed control at 200 ppm [2] [%] | pest or weed control at 400 ppm [3] [%] | BPH: activity at 10 ppm against brown planthopper (% Control rating) [4] | GLH: activity at 10 ppm against green leafbopper (% Control rating) [5] | CA: activity at 50 ppm against cotton aphid (% Control rating) [1] | CL: activity at 400 ppm against cabbage looper (% Control rating) [6] | BAW: activity at 400 ppm against beet armyworm (% Control rating) [3] | WF: activity at 200 ppm against whitefly (% Control rating) [2] | pest or weed control at 400 ppm [6] [%] |
| --- | --- | --- | --- | --- | --- | --- | --- | --- | --- | --- |
| Cc1nc(-c2sc(C#Cc3ccc(F)cc3)c(Cl)c2Cl)n(C)n1 [Compound 78] | < 50 | 60 to 69 | 90 to 100 | F (less than 50) | F (less than 50) | – | – | – | – | – |
| COc1ccc(C#Cc2sc(-c3nc(-c4c(F)cccc4Cl)nn3C)c(Cl)c2Cl)cc1Cl [Compound 48] | – | – | – | F (less than 50) | – | D (60-69) | A (90-100) | A (90-100) | – | – |
| CCOc1ccc(C#Cc2sc(-c3nc(-c4c(F)cccc4Cl)nn3C)c(Cl)c2Cl)cc1F [Compound 60] | – | – | – | – | – | F (less than 50) | A (90-100) | A (90-100) | E (50-59) | – |
| CCCc1ccc(C#Cc2sc(-c3nc(-c4ccccc4F)nn3C)c(Cl)c2Cl)cc1 [Compound 76] | – | – | – | F (less than 50) | F (less than 50) | – | – | A (90-100) | F (less than 50) | – |
| Cn1nc(-c2c(F)cccc2Cl)nc1-c1sc(C#Cc2cnc(N3CCOCC3)nc2)c(Cl)c1Cl [Compound 63] | – | – | – | – | – | – | A (90-100) | D (60-69) | F (less than 50) | – |
| CCCCn1nc(-c2c(F)cccc2Cl)nc1-c1sc(C#Cc2ccc(CCC)cc2)c(Cl)c1Cl [Compound 82] | – | – | – | – | – | F (less than 50) | A (90-100) | D (60-69) | F (less than 50) | – |
| Cn1nc(-c2c(F)cccc2Cl)nc1-c1sc(C#Cc2ccc(F)cc2F)c(Cl)c1Cl [Compound 23, 3-(2-chloro-6-fluorophenyl)-5-(5-(2,4-difluorophenylalkynyl)-3,4-dichloro-2-thiophene)-1-methyl-1H-1,2,4-triazole] | < 50 | < 50 | 90 to 100 | – | F (less than 50) | – | – | – | – | 90 to 100 |
| C#Cc1sc(-c2nc(-c3c(F)cccc3Cl)nn2C)c(Cl)c1Cl [Compound 2, 1-Methyl-3-(2-chloro-6-fluorophenyl)-5-(3,4-dichloro-5-ethynvl-thien-2-yl)[1,2,4]triazole] | 60 to 69 | – | – | D (60-69) | F (less than 50) | – | – | – | – | < 50 |
| Cn1nc(-c2c(F)cccc2Cl)nc1-c1sc(C#Cc2ccsc2)c(Cl)c1Cl [Compound 46] | – | – | – | F (less than 50) | – | E (50-59) | D (60-69) | D (60-69) | F (less than 50) | – |
| Cc1ccsc1C#Cc1sc(-c2nc(-c3c(F)cccc3Cl)nn2C)c(Cl)c1Cl [Compound 36] | – | – | – | D (60-69) | D (60-69) | E (50-59) | A (90-100) | – | F (less than 50) | – |
| Cn1nc(-c2c(F)cccc2Cl)nc1-c1sc(C#Cc2cnc(N3CCCCC3)nc2)c(Cl)c1Cl [Compound 64] | – | – | – | – | – | – | A (90-100) | B (80-89) | F (less than 50) | – |
